Biological target: T1, P2X purinoceptor 7 (Homo sapiens, UniProt Q99572)
T1 sequence (Q99572 whole entry): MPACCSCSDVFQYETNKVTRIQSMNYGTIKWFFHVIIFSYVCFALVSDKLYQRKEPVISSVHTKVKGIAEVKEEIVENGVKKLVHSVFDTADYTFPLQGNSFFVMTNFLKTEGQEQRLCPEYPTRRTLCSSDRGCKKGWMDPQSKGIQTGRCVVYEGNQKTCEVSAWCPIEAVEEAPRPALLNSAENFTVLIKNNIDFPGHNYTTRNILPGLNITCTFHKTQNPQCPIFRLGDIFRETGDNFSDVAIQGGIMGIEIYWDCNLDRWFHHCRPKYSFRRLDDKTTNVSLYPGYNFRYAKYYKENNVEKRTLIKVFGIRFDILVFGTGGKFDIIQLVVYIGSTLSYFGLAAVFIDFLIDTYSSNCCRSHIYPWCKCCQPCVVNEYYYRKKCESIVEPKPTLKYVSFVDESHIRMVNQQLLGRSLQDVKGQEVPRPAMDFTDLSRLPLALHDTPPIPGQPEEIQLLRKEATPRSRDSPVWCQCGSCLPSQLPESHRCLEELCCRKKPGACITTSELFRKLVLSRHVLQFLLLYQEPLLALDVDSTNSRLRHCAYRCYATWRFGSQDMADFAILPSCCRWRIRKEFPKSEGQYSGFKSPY
Assay: SUPPLEMENTARY: Inhibition of human P2X7 receptor assessed as inhibition of ethidium bromide accumulation. Same assay as CHEMBL1103860

| SMILES | IC50 [nM] |
| --- | --- |
| CC(C)c1ccccc1N1CCN(C(=O)c2cccc(Cl)c2Cl)CC1=O | 10 |
| Cc1cc(F)cc(C)c1N1CCN(Cc2cccc(C(F)(F)F)c2Cl)C(=O)C1=O | 50.1 |
| Cc1cc(F)cc(C)c1N1CCN(Cc2ccc(F)c(F)c2F)C(=O)C1=O | 316 |
| Cc1ccc(N2CCOCC2)cc1N1CCN(C(=O)c2cccc(C(F)(F)F)c2Cl)CC1=O | 15.8 |
| CN1C(=O)N(c2cncnc2)C[C@H]1C(=O)NCc1cccc(C(F)(F)F)c1Cl | 12.6 |
| CN1C(=O)N(c2cncnc2)C[C@H]1C(=O)NCc1ccc(Cl)cc1Cl | 50.1 |
| CN1C(=O)N(c2cncnc2)C[C@H]1C(=O)NCc1ccc(F)cc1Cl | 251 |
| CN1C(=O)N(CCCN2CCOCC2)CC1C(=O)NCc1cccc(C(F)(F)F)c1Cl (stereo not drawn) | 50.1 |
| Cc1cc(F)cc(C)c1N1CCN(Cc2ccc(F)cc2C(F)(F)F)C(=O)C1=O | 79.4 |
| O=C(c1cccc(C(F)(F)F)c1F)N1CCN(c2ccc(F)cc2Cl)C(=O)C1 | 63.1 |
| CN1C(=O)N(c2nccc(C(F)(F)F)n2)C[C@H]1C(=O)NCc1cccc(C(F)(F)F)c1Cl | 15.8 |
| CN1C(=O)N(c2nccc(C(F)(F)F)n2)C[C@H]1C(=O)NCc1ccc(Cl)cc1Cl | 31.6 |
| CN1C(=O)N(c2nccc(C(F)(F)F)n2)C[C@H]1C(=O)NCc1ccc(F)cc1Cl | 100 |
| Cc1ccc(N2C[C@@H](C(=O)NCc3cccc(C(F)(F)F)c3Cl)N(C)C2=O)c(C)n1 | 7.94 |
| Cc1ccc(N2C[C@@H](C(=O)NCc3ccc(Cl)cc3Cl)N(C)C2=O)c(C)n1 | 15.8 |
| Cc1ccc(N2C[C@@H](C(=O)NCc3ccc(F)cc3Cl)N(C)C2=O)c(C)n1 | 63.1 |
| O=C(c1ccc(Cl)cc1F)N1CCN(c2ccc(F)cc2Cl)C(=O)C1 | 63.1 |
| CC(C)Oc1cc(F)ccc1N1CCN(C(=O)c2cccc(C(F)(F)F)c2Cl)CC1=O | 10 |
| CC(C)Oc1cc(F)ccc1N1CCN(C(=O)c2cccc(Cl)c2Cl)CC1=O | 15.8 |
| CN1C(=O)N(c2cn(C)cn2)C[C@H]1C(=O)NCc1ccc(Cl)cc1Cl | 7.94 |
| C[C@@H]1CN(Cc2ccc(Cl)cc2Cl)C(=O)C(=O)N1c1ccccc1 | 25.1 |

| SMILES | IC50 [nM] |
| --- | --- |
| O=C(c1ccc(F)c(F)c1Cl)N1CCN(c2ccc(F)cc2Cl)C(=O)C1 | 39.8 |
| O=C(c1cccc(F)c1F)N1CCN(c2ccc(F)cc2Cl)C(=O)C1 | 316 |
| O=C(c1c(F)ccc(F)c1Cl)N1CCN(c2ccc(F)cc2Cl)C(=O)C1 | 631 |
| O=C(c1ccc(F)c(Cl)c1F)N1CCN(c2ccc(F)cc2Cl)C(=O)C1 | 100 |
| CN1CCN(C(=O)c2cccc(C(F)(F)F)c2Cl)CC1=O | 63.1 |
| CN1CCN(C(=O)c2ccc(Cl)cc2Cl)CC1=O | 251 |
| CN1C(=O)N(c2cncn2C)C[C@H]1C(=O)NCc1ccc(Cl)cc1Cl | 10 |
| CN1C(=O)N(c2cncn2C)C[C@H]1C(=O)NCc1cccc(C(F)(F)F)c1Cl | 5.01 |
| CN1CCN(C(=O)c2ccc(F)cc2Cl)CC1=O | 501 |
| N#Cc1cc(F)ccc1N1CCN(C(=O)c2cccc(Cl)c2Cl)CC1=O | 3.98 |
| CN1C(=O)N(c2cc(C(F)(F)F)ncn2)C[C@H]1C(=O)NCc1ccc(F)c(F)c1Cl | 50.1 |
| CN1C(=O)N(c2cc(C(F)(F)F)ncn2)C[C@H]1C(=O)NCc1ccc(Cl)cc1Cl | 31.6 |
| CN1C(=O)N(c2cc(C(F)(F)F)ncn2)C[C@H]1C(=O)NCc1cccc(C(F)(F)F)c1Cl | 31.6 |
| CC(C)CN1CCN(C(=O)c2cccc(Cl)c2Cl)CC1=O | 50.1 |
| O=C(c1ccc(F)cc1Cl)N1CCN(c2ccc(F)cc2Cl)C(=O)C1 | 251 |
| Cc1cccc(C(=O)N2CCN(C)C(=O)C2)c1Cl | 631 |
| CCN1CCN(C(=O)c2cccc(C(F)(F)F)c2Cl)CC1=O | 126 |
| O=C1CN(C(=O)c2cccc(C(F)(F)F)c2Cl)CCN1CC(F)(F)F | 200 |
| CC(C)N1CCN(C(=O)c2cccc(C(F)(F)F)c2Cl)CC1=O | 100 |
| COCCN1CCN(C(=O)c2cccc(C(F)(F)F)c2Cl)CC1=O | 316 |
| COc1ccc(I)cc1N1CCN(C(=O)c2cccc(C(F)(F)F)c2Cl)CC1=O | 12.6 |

| SMILES | IC50 [nM] |
| --- | --- |
| CC(C)CN1CCN(C(=O)c2cccc(C(F)(F)F)c2Cl)CC1=O | 200 |
| CN1C(=O)N(c2ccc(F)nc2)C[C@H]1C(=O)NCc1ccc(Cl)cc1Cl | 20 |
| O=C(c1cccc(Cl)c1Cl)N1CCN(c2ccc(F)cc2F)C(=O)C1 | 126 |
| O=C(c1ccc(Cl)cc1Cl)N1CCN(c2ccc(F)cc2F)C(=O)C1 | 794 |
| O=C(c1cccc(C(F)(F)F)c1Cl)N1CCN(c2ccc(F)cc2F)C(=O)C1 | 63.1 |
| C[C@H]1CN(Cc2ccc(Cl)cc2Cl)C(=O)C(=O)N1c1ccccc1 | 158 |
| CN1C(=O)N(c2cn(C)cn2)C[C@H]1C(=O)NCc1ccc(F)c(F)c1Cl | 15.8 |
| CN1C(=O)N(c2nccn2C)C[C@H]1C(=O)NCc1ccc(F)c(F)c1Cl | 39.8 |
| CN1C(=O)N(c2ccnn2C)C[C@H]1C(=O)NCc1ccc(F)c(F)c1Cl | 20 |
| CN1C[C@@H](C(=O)NCc2cccc(C(F)(F)F)c2Cl)NC1=O | 63.1 |
| CN1C[C@@H](C(=O)NCc2ccc(F)cc2Cl)NC1=O | 794 |
| O=C(c1cccc(Cl)c1Cl)N1CCN(c2cccc3ccccc23)C(=O)C1 | 15.8 |
| O=C(c1cccc(C(F)(F)F)c1Cl)N1CCN(c2cccc3ccccc23)C(=O)C1 | 12.6 |
| CN1C(=O)N(CCN2CCOCC2)CC1C(=O)NCc1cccc(C(F)(F)F)c1Cl (stereo not drawn) | 25.1 |
| CC(C)c1ccccc1N1CCN(C(=O)c2cccc(C(F)(F)F)c2Cl)CC1=O | 7.94 |
| CN1C(=O)N(CCN2CCOCC2)CC1C(=O)NCc1ccc(Cl)cc1Cl (stereo not drawn) | 79.4 |
| Cc1ccc(N2CCOCC2)cc1N1CCN(C(=O)c2cccc(Cl)c2Cl)CC1=O | 15.8 |
| CN1C(=O)N(CCN2CCOCC2)CC1C(=O)NCc1ccc(F)cc1Cl (stereo not drawn) | 251 |
| CC(C)c1ccccc1N1CCN(C(=O)c2ccc(F)cc2Cl)CC1=O | 31.6 |

Continued, values first:

| IC50 [nM] | SMILES |
| --- | --- |
| 25.1 | Cc1c(N2CCCC2)cccc1N1CCN(Cc2ccc(F)cc2Cl)C(=O)C1=O |
| 50.1 | Cc1cc(F)ccc1N1CCN(C(=O)c2cccc(Cl)c2Cl)CC1=O |
| 39.8 | Cc1cc(F)cc(C)c1N1CCN(Cc2ccc(F)cc2Cl)C(=O)C1=O |
| 12.6 | Cc1cc(F)cc(C)c1N1CCN(Cc2ccc(Cl)cc2Cl)C(=O)C1=O |
| 50.1 | Cc1cc(F)cc(C)c1N1CCN(Cc2cccc(Cl)c2Cl)C(=O)C1=O |
| 63.1 | CN(C)c1ccccc1N1CCN(Cc2ccc(F)cc2Cl)C(=O)C1=O |
| 6.31 | Cc1cccc(C)c1N1CCN(Cc2cccc(C(F)(F)F)c2Cl)C(=O)C1=O |
| 6.31 | Cc1cccc(C)c1N1CCN(Cc2cccc(Cl)c2Cl)C(=O)C1=O |
| 39.8 | Cc1cccc(C)c1N1CCN(Cc2ccc(F)c(F)c2F)C(=O)C1=O |
| 7.94 | Cc1cccc(C)c1N1CCN(Cc2ccc(F)cc2C(F)(F)F)C(=O)C1=O |
| 1.58 | Cc1cccc(C)c1N1CCN(Cc2ccc(Cl)cc2Cl)C(=O)C1=O |
| 12.6 | Cc1c(Cl)cccc1N1CCN(Cc2ccc(F)cc2Cl)C(=O)C1=O |
| 79.4 | Cc1cc(Br)ccc1N1CCN(Cc2ccc(F)cc2Cl)C(=O)C1=O |
| 50.1 | Cc1c(N2CCN(Cc3ccc(F)cc3Cl)C(=O)C2=O)cccc1-n1ccnc1 |
| 25.1 | COc1c(N2CCOCC2)cccc1N1CCN(Cc2ccc(F)cc2Cl)C(=O)C1=O |
| 31.6 | Cc1cccc(C(=O)N2CCN(c3ccc(F)cc3Cl)C(=O)C2)c1Cl |
| 12.6 | CCN(CC)c1ccc(N2CCN(Cc3ccc(F)cc3Cl)C(=O)C2=O)c(C)c1 |
| 20 | COc1cccc(OC)c1N1CCN(Cc2ccc(F)cc2Cl)C(=O)C1=O |
| 63.1 | O=C(c1c(Cl)cccc1Cl)N1CCN(c2ccc(F)cc2Cl)C(=O)C1 |

| IC50 [nM] | SMILES |
| --- | --- |
| 158 | O=C(c1cccc(Cl)c1F)N1CCN(c2ccc(F)cc2Cl)C(=O)C1 |
| 100 | O=C1C(=O)N(c2ccccc2-n2cccc2)CCN1Cc1ccc(F)cc1Cl |
| 158 | Cc1cccc(N2CCN(Cc3ccc(F)cc3Cl)C(=O)C2=O)c1F |
| 31.6 | O=C1C(=O)N(c2ccccc2OC(F)(F)F)CCN1Cc1ccc(F)cc1Cl |
| 79.4 | COc1ccc(Br)cc1N1CCN(Cc2ccc(F)cc2Cl)C(=O)C1=O |
| 200 | O=C1C(=O)N(c2ccc(F)cc2Cl)CCN1Cc1ccc(F)cc1Cl |
| 501 | O=C1C(=O)N(c2cccc3ncccc23)CCN1Cc1ccc(F)cc1Cl |
| 158 | O=C1C(=O)N(c2cncc3ccccc23)CCN1Cc1ccc(F)cc1Cl |
| 3.16 | Cc1cccc(C)c1N1CCN(Cc2ccc(F)cc2Cl)C(=O)C1=O |
| 7.94 | O=C1C(=O)N(c2ccccc2I)CCN1Cc1ccc(F)cc1Cl |
| 251 | Cc1cc(F)ccc1N1CCN(Cc2ccc(F)cc2Cl)C(=O)C1=O |
| 25.1 | COc1cccc(N2CCN(Cc3ccc(F)cc3Cl)C(=O)C2=O)c1Cl |
| 251 | CN1CCOc2cccc(N3CCN(Cc4ccc(F)cc4Cl)C(=O)C3=O)c21 |
| 15.8 | O=C1C(=O)N(c2ccccc2C(F)(F)F)CCN1Cc1ccc(F)cc1Cl |
| 50.1 | COc1ccc(N2CCOCC2)cc1N1CCN(Cc2ccc(F)cc2Cl)C(=O)C1=O |
| 126 | O=C1C(=O)N(c2ccccc2-c2ccccc2)CCN1Cc1ccc(F)cc1Cl |
| 50.1 | Cc1c(Br)cccc1N1CCN(Cc2ccc(F)cc2Cl)C(=O)C1=O |
| 200 | Cc1c(F)ccc(N2CCN(Cc3ccc(F)cc3Cl)C(=O)C2=O)c1C |

Source: ChEMBL document CHEMBL2218064, “Structure-activity relationship data for chemical series of antagonists of the P2X7 receptor (Supplementary Bioactivity Data for publication CHEMBL1157114)”
